Here are results for 9 molecules from ChEMBL document CHEMBL3797082, “A multicomponent pharmacophore fragment-decoration approach to identify selective LRRK2-targeting probes” (Medchemcomm, 2016).

Test [1] deals with Leucine-rich repeat serine/threonine-protein kinase 2 (Homo sapiens), Q5S007 [G2019S]. The test can be described thus: Inhibition of human recombinant GST-tagged LRRK2 G2019S mutant (970 residues) expressed in baculovirus expression system using LRRKtide as substrate at 100 uM incubated for 10 mins by scintillation counting method in presence of [gamma33P]ATP.
The target of test [2] is Leucine-rich repeat serine/threonine-protein kinase 2 (Homo sapiens) (UniProt Q5S007). The test can be described thus: Inhibition of human recombinant N-terminal GST-tagged LRRK2 (968 residues) expressed in baculovirus infected sf9 cells using LRRKtide as substrate at 100 uM incubated for 10 mins by scintillation counting method in presence of [gamma33P]ATP.
Leucine-rich repeat serine/threonine-protein kinase 2 (Homo sapiens), sequence (Q5S007 whole entry, the tested form may be a part): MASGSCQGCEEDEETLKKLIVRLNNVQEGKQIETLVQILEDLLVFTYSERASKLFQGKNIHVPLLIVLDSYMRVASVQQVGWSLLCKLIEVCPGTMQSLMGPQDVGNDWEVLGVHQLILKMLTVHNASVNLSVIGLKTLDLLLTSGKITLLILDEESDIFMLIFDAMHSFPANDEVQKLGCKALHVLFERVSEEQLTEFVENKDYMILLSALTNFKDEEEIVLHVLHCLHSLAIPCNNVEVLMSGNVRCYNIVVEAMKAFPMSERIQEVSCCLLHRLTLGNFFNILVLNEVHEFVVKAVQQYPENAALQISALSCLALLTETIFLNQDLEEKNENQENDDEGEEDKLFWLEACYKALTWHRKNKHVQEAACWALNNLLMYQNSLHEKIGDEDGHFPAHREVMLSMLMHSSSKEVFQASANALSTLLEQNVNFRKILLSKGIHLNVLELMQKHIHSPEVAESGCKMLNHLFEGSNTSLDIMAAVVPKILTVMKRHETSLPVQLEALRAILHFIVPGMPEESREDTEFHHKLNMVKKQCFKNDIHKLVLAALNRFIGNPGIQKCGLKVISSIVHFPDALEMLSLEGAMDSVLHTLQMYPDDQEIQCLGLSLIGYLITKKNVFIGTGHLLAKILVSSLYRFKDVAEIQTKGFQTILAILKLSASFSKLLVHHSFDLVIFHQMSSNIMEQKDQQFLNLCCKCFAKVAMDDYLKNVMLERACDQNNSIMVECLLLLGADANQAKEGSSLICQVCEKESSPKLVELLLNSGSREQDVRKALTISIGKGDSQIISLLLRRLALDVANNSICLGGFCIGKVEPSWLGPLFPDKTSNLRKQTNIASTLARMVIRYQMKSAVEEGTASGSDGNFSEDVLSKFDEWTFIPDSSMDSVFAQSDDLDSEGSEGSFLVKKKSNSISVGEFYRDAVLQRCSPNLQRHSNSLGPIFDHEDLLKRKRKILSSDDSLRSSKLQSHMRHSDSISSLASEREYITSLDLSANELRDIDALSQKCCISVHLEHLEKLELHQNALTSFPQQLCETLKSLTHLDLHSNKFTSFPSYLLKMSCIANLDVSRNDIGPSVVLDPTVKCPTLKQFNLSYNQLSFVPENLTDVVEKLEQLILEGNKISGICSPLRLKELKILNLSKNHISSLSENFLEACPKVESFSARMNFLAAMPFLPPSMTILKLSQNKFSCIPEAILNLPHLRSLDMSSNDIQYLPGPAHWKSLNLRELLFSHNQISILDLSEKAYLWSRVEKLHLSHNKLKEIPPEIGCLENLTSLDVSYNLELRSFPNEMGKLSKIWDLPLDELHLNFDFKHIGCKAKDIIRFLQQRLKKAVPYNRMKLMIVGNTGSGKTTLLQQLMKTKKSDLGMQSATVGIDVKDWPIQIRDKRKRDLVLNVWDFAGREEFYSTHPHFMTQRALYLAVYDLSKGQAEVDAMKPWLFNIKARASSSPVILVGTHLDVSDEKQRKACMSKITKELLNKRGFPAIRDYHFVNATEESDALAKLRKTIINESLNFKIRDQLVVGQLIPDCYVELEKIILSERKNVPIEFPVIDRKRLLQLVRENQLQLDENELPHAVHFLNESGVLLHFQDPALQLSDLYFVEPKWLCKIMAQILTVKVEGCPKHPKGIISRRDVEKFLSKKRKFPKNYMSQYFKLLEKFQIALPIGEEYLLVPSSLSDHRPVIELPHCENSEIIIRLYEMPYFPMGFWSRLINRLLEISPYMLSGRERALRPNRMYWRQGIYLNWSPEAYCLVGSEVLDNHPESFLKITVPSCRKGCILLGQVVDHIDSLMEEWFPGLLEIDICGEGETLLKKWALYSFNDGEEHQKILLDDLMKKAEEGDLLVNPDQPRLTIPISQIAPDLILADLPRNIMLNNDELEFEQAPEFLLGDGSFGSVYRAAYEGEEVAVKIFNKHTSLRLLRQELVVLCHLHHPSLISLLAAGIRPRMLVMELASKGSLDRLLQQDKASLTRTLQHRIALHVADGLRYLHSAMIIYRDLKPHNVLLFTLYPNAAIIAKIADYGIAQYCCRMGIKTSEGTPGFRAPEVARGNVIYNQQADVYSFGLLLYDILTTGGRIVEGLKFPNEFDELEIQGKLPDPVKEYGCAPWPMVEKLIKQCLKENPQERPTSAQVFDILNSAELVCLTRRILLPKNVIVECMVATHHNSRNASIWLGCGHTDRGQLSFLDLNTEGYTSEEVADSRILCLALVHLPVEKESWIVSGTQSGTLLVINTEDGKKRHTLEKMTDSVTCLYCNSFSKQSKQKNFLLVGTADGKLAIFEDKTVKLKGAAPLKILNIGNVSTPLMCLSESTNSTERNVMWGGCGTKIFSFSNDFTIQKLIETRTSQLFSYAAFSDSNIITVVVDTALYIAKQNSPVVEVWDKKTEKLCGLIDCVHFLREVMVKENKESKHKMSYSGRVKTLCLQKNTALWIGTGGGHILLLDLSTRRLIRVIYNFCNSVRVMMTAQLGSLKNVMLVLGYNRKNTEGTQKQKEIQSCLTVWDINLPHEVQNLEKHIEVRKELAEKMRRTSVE
Test [3] deals with Serine/threonine-protein kinase pim-1 (Homo sapiens) (UniProt P11309). The test can be described thus: Inhibition of full length human recombinant N-terminal GST-tagged PIM1 expressed in Escherichia coli using S6 Kinase/Rsk2 peptide2 as substrate at 100 uM incubated for 10 mins by scintillation counting method relative to control.
Serine/threonine-protein kinase pim-1 (Homo sapiens), sequence (P11309 whole entry, looked up): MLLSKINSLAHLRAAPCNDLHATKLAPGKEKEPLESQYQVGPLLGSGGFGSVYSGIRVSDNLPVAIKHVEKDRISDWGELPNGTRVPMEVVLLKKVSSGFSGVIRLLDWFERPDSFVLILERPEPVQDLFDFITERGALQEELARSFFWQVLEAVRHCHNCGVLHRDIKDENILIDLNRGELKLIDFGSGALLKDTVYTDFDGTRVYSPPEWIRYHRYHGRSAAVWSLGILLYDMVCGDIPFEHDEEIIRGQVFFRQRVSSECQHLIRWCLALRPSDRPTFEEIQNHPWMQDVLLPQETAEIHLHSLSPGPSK
Test [4] has as its target Glycogen synthase kinase-3 beta (Homo sapiens) (UniProt P49841). The test can be described thus: Inhibition of full length human recombinant N-terminal GST-tagged GSK3beta expressed in baculovirus infected sf9 cells using GSK3 substrate at 100 uM incubated for 10 mins by scintillation counting method relative to control.
Test [5] relates to Leucine-rich repeat serine/threonine-protein kinase 2 (Homo sapiens), Q5S007 [G2019S]. Description: Inhibition of human recombinant GST-tagged LRRK2 G2019S mutant (970 residues) expressed in baculovirus expression system using LRRKtide as substrate at 50 uM incubated for 10 mins by scintillation counting method in presence of [gamma33P]ATP.
The target in test [6] is Receptor-type tyrosine-protein kinase FLT3 (Homo sapiens) (UniProt P36888). Description: Inhibition of human recombinant N-terminal GST-His6-tagged FLT3 (R571-S993 residues) expressed in baculovirus infected sf9 cells using KVEKIGEGTYGVVYK as substrate at 100 uM incubated for 10 mins by scintillation counting method relative to control.
For test [7], the system named is Leucine-rich repeat serine/threonine-protein kinase 2 (Homo sapiens), Q5S007 [G2019S]. The test can be described thus: Inhibition of human recombinant GST-tagged LRRK2 G2019S mutant (970 residues) expressed in baculovirus expression system using LRRKtide as substrate incubated for 10 mins by scintillation counting method in presence of [gamma33P]ATP.
Test [8] can be described thus: Selectivity ratio of ID50 for human recombinant N-terminal GST-tagged LRRK2 (968 residues) expressed in baculovirus infected sf9 cells to ID50 for human recombinant GST-tagged LRRK2 G2019S mutant (970 residues) expressed in baculovirus expression system.
Test [9] concerns the target Focal adhesion kinase 1 (Homo sapiens) (UniProt Q05397). The test can be described thus: Inhibition of human recombinant FAK expressed in baculovirus infected sf9 cells using KVEKIGEGTYGVVYK as substrate at 100 uM incubated for 10 mins by scintillation counting method relative to control.
Test [10] has as its target Phosphatidylinositol 4-kinase beta (Homo sapiens) (UniProt Q9UBF8). Description: Inhibition of full length human recombinant N-terminal GST-His-tagged PI4KB expressed in sf9 cells using phosphatidyl inositol:phosphatidyl serine (1:3) substrate at 100 uM by ADP-Glo kinase assay relative to control.
For test [11], the target named is T1, Leucine-rich repeat serine/threonine-protein kinase 2 (Homo sapiens, UniProt Q5S007, G2019S). Description: Mixed type inhibition of human recombinant GST-tagged LRRK2 G2019S mutant (970 residues) expressed in baculovirus expression system assessed as enzyme-inhibitor complex by Michaelis-Menten kinetics in presence of varying level of ATP.
Test [12] addresses CDK9/Cyclin K (Homo sapiens) (UniProt P50750+O75909). The test can be described thus: Inhibition of full length human recombinant N-terminal GST-tagged CDK9/Cyclin K expressed in baculovirus infected sf9 cells using CDKtide as substrate at 100 uM incubated for 10 mins by scintillation counting method relative to control.
The test system of test [13] is Leucine-rich repeat serine/threonine-protein kinase 2 (Homo sapiens), Q5S007 [G2019S]. The test can be described thus: Ratio of enzyme-substrate-inhibitor complex Ki to enzyme-inhibitor complex Ki for human recombinant GST-tagged LRRK2 G2019S mutant (970 residues) expressed in baculovirus expression system.
The target in test [14] is T1, Leucine-rich repeat serine/threonine-protein kinase 2. Description: Mixed type inhibition of human recombinant GST-tagged LRRK2 G2019S mutant (970 residues) expressed in baculovirus expression system assessed as enzyme-substrate-inhibitor complex by Michaelis-Menten kinetics in presence of varying level of ATP.
Test [15] has as its target Cyclin-dependent kinase 4/cyclin D1 (Homo sapiens) (UniProt P11802+P24385). Description: Inhibition of full length human recombinant N-terminal GST-tagged CDK4/Cyclin D1 expressed in baculovirus infected sf9 cells using RB-CTF as substrate at 100 uM incubated for 10 mins by scintillation counting method relative to control.
For test [16], the target named is Tyrosine-protein kinase HCK (Homo sapiens) (UniProt P08631). The test can be described thus: Inhibition of full length human recombinant N-terminal GST-His6-tagged HCK (M1 to P505 residues) expressed in baculovirus infected sf9 cells using KVEKIGEGTYGVVYK as substrate at 100 uM incubated for 10 mins by scintillation counting method relative to control.
Tyrosine-protein kinase HCK (Homo sapiens), sequence (P08631 2-526 limits assumed): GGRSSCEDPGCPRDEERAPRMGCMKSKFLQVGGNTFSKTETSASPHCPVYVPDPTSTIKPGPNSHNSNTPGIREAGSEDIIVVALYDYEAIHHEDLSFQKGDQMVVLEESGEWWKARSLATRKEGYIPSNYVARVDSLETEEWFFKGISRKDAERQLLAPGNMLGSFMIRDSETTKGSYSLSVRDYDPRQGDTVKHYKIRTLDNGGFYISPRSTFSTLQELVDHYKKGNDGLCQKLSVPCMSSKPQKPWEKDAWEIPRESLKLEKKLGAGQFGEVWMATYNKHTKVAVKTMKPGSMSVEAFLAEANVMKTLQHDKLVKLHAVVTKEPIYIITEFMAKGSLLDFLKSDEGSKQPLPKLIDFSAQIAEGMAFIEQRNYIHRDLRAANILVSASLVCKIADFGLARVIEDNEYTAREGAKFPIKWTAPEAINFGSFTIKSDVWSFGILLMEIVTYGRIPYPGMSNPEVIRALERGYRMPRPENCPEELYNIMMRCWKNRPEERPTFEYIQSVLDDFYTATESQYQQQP
The target of test [17] is CDK6/cyclin D1 (Homo sapiens) (UniProt P24385+Q00534). The test can be described thus: Inhibition of full length human recombinant N-terminal His-tagged CDK6/N-terminal GST-tagged Cyclin D1 expressed in baculovirus infected sf9 cells using RB-CTF as substrate at 100 uM incubated for 10 mins by scintillation counting method relative to control.
In test [18] the target is CDK2/Cyclin A2 (Homo sapiens) (UniProt P24941+P20248). The test can be described thus: Inhibition of full length human recombinant N-terminal GST-tagged CDK2 (M1-L298 residues)/Cyclin A2 (M1-L432 residues) expressed in baculovirus infected sf9 cells using histone H1 as substrate at 100 uM incubated for 10 mins by scintillation counting method relative to control.
The target in test [19] is Tyrosine-protein kinase ABL1 (Homo sapiens) (UniProt P00519). Description: Inhibition of human recombinant N-terminal His-tagged ABL (27 residues) expressed in baculovirus infected sf9 cells using KKGEAIYAAPFA-NH2 as substrate at 100 uM incubated for 10 mins by scintillation counting method relative to control.
Tyrosine-protein kinase ABL1 (Homo sapiens), sequence (P00519 whole entry, the tested form may be a part): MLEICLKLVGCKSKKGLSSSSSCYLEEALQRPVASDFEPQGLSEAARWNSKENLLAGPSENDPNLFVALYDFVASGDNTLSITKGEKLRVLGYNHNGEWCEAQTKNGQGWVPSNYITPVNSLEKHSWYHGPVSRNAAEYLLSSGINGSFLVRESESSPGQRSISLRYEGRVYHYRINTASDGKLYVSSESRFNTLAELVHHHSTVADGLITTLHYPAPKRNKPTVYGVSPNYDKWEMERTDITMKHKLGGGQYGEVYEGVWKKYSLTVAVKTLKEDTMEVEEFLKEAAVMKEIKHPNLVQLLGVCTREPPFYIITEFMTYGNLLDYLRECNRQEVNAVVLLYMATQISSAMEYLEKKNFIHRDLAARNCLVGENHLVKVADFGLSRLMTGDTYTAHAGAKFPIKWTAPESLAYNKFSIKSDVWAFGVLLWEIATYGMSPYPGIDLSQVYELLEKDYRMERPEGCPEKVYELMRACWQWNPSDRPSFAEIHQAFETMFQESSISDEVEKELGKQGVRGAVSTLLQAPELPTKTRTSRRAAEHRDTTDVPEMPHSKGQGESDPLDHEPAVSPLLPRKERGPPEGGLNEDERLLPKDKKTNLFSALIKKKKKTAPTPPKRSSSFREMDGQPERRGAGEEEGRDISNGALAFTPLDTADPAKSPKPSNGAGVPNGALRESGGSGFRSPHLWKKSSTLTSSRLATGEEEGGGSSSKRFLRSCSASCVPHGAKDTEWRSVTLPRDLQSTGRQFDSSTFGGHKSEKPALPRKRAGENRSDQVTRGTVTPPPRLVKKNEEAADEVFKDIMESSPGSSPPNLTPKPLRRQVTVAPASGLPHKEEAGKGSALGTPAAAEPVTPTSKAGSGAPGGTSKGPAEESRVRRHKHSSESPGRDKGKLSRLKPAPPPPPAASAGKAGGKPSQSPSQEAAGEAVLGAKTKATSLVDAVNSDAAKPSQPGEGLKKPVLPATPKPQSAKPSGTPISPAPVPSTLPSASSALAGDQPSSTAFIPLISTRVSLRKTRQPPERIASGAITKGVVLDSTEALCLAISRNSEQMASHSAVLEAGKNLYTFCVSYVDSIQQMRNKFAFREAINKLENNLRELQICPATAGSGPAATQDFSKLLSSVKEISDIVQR
Test [20] deals with CDK9/cyclin T1 (Homo sapiens) (UniProt O60563+P50750). Description: Inhibition of full length human recombinant N-terminal GST-His6-tagged CDK9 (M1-F372 residues)/Cyclin T1 (M1-K726 residues) expressed in baculovirus infected sf9 cells using CDKtide as substrate at 100 uM incubated for 10 mins by scintillation counting method relative to control.
The target in test [21] is Leucine-rich repeat serine/threonine-protein kinase 2 (Homo sapiens) (UniProt Q5S007). The test can be described thus: Inhibition of human recombinant N-terminal GST-tagged LRRK2 (968 residues) expressed in baculovirus infected sf9 cells using LRRKtide as substrate at 50 uM incubated for 10 mins by scintillation counting method in presence of [gamma33P]ATP.
Test [22] concerns the target Dual specificity tyrosine-phosphorylation-regulated kinase 1A (Rattus norvegicus) (UniProt Q63470). The test can be described thus: Inhibition of recombinant rat N-terminal GST-tagged DYRK1A (1 to 499 residues) expressed in Escherichia coli using KKISGRLSPIMTEQ-NH2 as substrate at 100 uM incubated for 10 mins by scintillation counting method relative to control.
Test [23] addresses Leucine-rich repeat serine/threonine-protein kinase 2 (Homo sapiens) (UniProt Q5S007). Description: Inhibition of human recombinant N-terminal GST-tagged LRRK2 (968 residues) expressed in baculovirus infected sf9 cells using LRRKtide as substrate incubated for 10 mins by scintillation counting method in presence of [gamma33P]ATP.
In test [24] the target is Proto-oncogene tyrosine-protein kinase Src (Homo sapiens) (UniProt P12931). The test can be described thus: Inhibition of full length human recombinant N-terminal His6-tagged SRC expressed in baculovirus infected sf21 cells using KVEKIGEGTYGVVYK as substrate at 100 uM incubated for 10 mins by scintillation counting method relative to control.
Proto-oncogene tyrosine-protein kinase Src (Homo sapiens), sequence (P12931 2-536 limits assumed): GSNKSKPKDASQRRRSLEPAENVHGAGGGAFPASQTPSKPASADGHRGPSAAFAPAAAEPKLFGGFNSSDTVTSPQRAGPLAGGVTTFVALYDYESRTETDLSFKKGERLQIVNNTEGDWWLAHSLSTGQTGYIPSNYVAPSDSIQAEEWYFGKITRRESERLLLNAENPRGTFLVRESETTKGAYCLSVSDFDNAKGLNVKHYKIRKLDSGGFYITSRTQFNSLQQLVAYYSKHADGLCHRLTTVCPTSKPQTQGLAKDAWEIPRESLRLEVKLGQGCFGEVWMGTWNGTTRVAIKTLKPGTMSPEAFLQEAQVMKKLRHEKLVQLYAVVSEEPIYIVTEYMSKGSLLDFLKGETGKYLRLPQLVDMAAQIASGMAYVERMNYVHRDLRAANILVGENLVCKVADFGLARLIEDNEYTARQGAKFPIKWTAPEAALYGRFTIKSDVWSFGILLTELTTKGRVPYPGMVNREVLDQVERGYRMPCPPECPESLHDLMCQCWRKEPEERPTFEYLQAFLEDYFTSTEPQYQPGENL
For test [25], the target named is T1, Leucine-rich repeat serine/threonine-protein kinase 2. The test can be described thus: Competitive inhibition of human recombinant GST-tagged LRRK2 G2019S mutant (970 residues) expressed in baculovirus expression system assessed as enzyme-inhibitor complex by Michaelis-Menten kinetics in presence of varying level of ATP.

Activity calls are given as the source filed them. The calls are words filed in the database; no cut-off is given here.

Regarding `COc1ccc(/C=N/Nc2nc3c(c(-c4ccccc4)c2C#N)CCCC3)cc1`, the inhibition result in [1] and in test [2] was “Active” each time.

For `COc1ccc(/C=N/Nc2nc(C)cc(C)c2C#N)cc1`, the inhibition result in [1] and in test [2] was “Active” throughout.

In the case of `COc1ccc(/C=N/Nc2ccccn2)cc1`, the inhibition entry in test [1] and in test [2] was “Active” each time.

Regarding `Cc1cc(N/N=C/c2ccc(O)cc2)nc2ccccc12`, the inhibition (as a rule, the drop in the measured response relative to a control, in per cent) worked out at 43% in [3]; 0% in [4]; 62% in test [6]; 13% in test [9]; 31% in test [10]; 24% in [12]. Besides, the inhibition in test [15] is 16%; in test [16], 0%; in test [17], 40%; in test [18], 12%; in [19], 24%; in test [20], 0%. The inhibition in [22] was 22%; in [24] it was 21%. Further, the inhibition result in test [5] and in test [21] was “Active” each time. For the same molecule, the ID50 was found to be 1300 nM in test [7] and 2700 nM in [23]. The Selectivity ratio in [8] was found to be 2.4. Further, the Ki – broadly, the equilibrium dissociation constant of an inhibitor or competing ligand from its target – in [11] is 550 nM; in [14], 2590 nM. In addition, the Ratio in test [13] stood at 5.

In the case of `COc1ccc(-c2nnc3c(NCCN4CCOCC4)cccn23)cc1OC`, the inhibition in [3] stood at 29%; in [4] it was 14%; in [6], 0%; in test [9] it was 8%; in test [10], 3%; in test [12] it was 38%. Further, the inhibition in [15] was 10%; in test [16], 0%; in test [17] it was 18%; in test [18] it was 22%; in test [19], 19%; in test [20], 24%. The results for the inhibition in [22] and in test [24] were 26% and 40%, respectively. Besides, the inhibition entry in [1] and in [2] was “Active” throughout. Besides, the ID50 in test [7] came to 9100 nM; in test [23] it was 32000 nM. For the same molecule, the Selectivity ratio in [8] was found to be 3.5. The Ki in test [25] is 5610 nM.

As to `C/C(=N\Nc1ccc2ccccc2n1)c1ccccc1O`, the inhibition in test [3] was determined as 3%; in test [4], 1%; in test [6], 3%; in test [9], 1%; in test [10], 0%; in [12] it was 2%. Further, the inhibition in [15] amounted to 7%; in [16], 0%; in [17], 1%; in test [18] it was 3%; in [19], 6%; in test [20], 1%. Besides, the inhibition in [22] is 9%; in test [24] it was 5%. For the same molecule, the inhibition result in test [5] and in test [21] was “Active” each time. The ID50 in [7] turned out to be 4800 nM; in test [23] it was 32600 nM. Moreover, the Selectivity ratio in test [8] amounted to 7.5. The Ki stood at 3450 nM in test [11] and 18400 nM in test [14]. The Ratio in test [13] was 5.

Take `COc1ccc(/C=N/Nc2cc(C)c3ccccc3n2)cc1`: the inhibition came to 20% in [3]; 0% in [4]; 50% in test [6]; 11% in test [9]; 32% in test [10]; 53% in test [12]. The inhibition in test [15] was 9%; in test [16] it was 0%; in [17], 42%; in [18] it was 9%; in [19], 43%; in test [20], 0%. Further, the inhibition in test [22] came to 0%; in [24] it was 31%. For the same molecule, the inhibition result in [5] and in test [21] was “Active” throughout. Further, the ID50 in test [7] worked out at 900 nM; in test [23], 3000 nM. For the same molecule, in [8], the Selectivity ratio is 4. Moreover, the Ki in test [11] was 740 nM; in test [14], 1800 nM.

On to `COc1ccc(/C=N/Nc2ncccc2Cl)cc1OC`, for which the inhibition result in [1] and in test [2] was “Active” each time.

With `Cc1cc(N/N=C/c2ccc(OC(=O)c3ccc(N4CCN(C)CC4)cc3)cc2)nc2ccccc12`, the inhibition result in test [1] and in test [2] was “inactive” in each case.
